1 substance from patent US7947435B2, “Neuronal regeneration material screening method by ex vivo model” (Seoul National University Industry Foundation, priority 2007, dated 2011) can be followed below.

The subject of assay [1] is spinal cord slices. Briefly: Histological analysis of spinal cord tissue slices (Luxol fast blue, H&E). Type of assay: cell-based, Sprague-Dawley rats. The note with it: spinal cord slices treated with 0.5 mg/ml lysolecithin for 17 hours, compared with the control; FIG. 1. The text has this:
(§1) <1-2> Preparation of Spinal Cord Tissue Slices Sprague-Dawley rats at 16 days old were anesthetized and the spinal cord was extracted. The spinal cord was put into ice-cold HBSS (Hanks balanced salt solution). Thoracic and lumbar spinal cords were cult into 400 μm in thickness by using a tissue chopper (McIlwain tissue chopper, The Mickle Laboratory Engineering Co. LTD, England). Several spinal cord slices were loaded on 0.4 μm filter (Millicell-CM filters, Millipore, USA) placed on a 6 well plate. The spinal cord slices were cultured in 1 ml of 25% horse serum (Invitrogen, USA) containing 50% MEM (Invitrogen, USA) supplemented with Earl's salts, 25% HBSS (Invitrogen, USA), 20 mM HEPES (Sigma, USA) and 6 mg/ml of D-glucose (Duchefa, Netherlands). The culture conditions were 5% CO2, 37° C. and the medium was replaced with a fresh medium twice a week. <1-3> Demyelination by Lysolecithin
(§2) The spinal cord slices were cultured in vitro (DIV, days in vitro) for 7 days. After treating 0.5 mg/ml of lysolecithin, the slices were cultured at 37° C. for 17 hours to induce demyelination of axons (Birgbauer et al., J Neurosci Res, 78, 157-166, 2004). After inducing demyelination, the medium containing lysolecithin was replaced with 1 ml of fresh medium. […]

In assay [2] the test system is spinal cord slices. Put plainly: Immunofluorescent staining of lysolecithin-demyelinated spinal cord slices. Type of assay: cell-based, Sprague-Dawley rats. Conditions: spinal cord slices treated with 0.5 mg/ml lysolecithin for 17 hours, compared with the control; FIG. 1.
From the text: as §1, §2

As for lysolecithin, the “demyelination (myelin, Luxol fast blue staining)” value in assay [1] was “serious demyelination was observed”. The MBP expression entry in assay [2] is on record as “decreased”.
